These results are taken from US20140377340A1, “HLA-DR BINDING PEPTIDES AND THEIR USES” (priority 2007, published 2014).

The subject of assay [1] is peptide-specific T cells in PBMC. Kind of assay: 10-day interferon-gamma ELIspot with PBMC of breast or ovarian cancer patients and healthy controls. Conditions: for Percent of patients with responses: fraction of breast or ovarian cancer patients with mean T cell values above cutoff (mean + 2 SD of healthy donors). Format: cell-based, human. The text has this:
Each panel represents a unique peptide and each data point is derived from one individual. The grey box (i.e. cutoff) delineates the region that constitutes the mean and two standard deviations calculated from the normal healthy individuals. The percentages represent the fraction of patients that had mean T cell values above the cutoff. The peptides that are circled are those in which a higher fraction of the patients responded compared to the normal healthy controls. These peptides are considered to be the best vaccine candidates. However, it is clear that the rigidness of this approach could potentially result in many false negatives. […] Despite this, we identified 5 candidates to move forward. The fidelity of this approach is evident from a prior study which has already shown that a HER-2/neu peptide, p884-899, which encompasses the binding motif of p885, is an HLA-DR4 epitope.
Enzyme-linked immunosorbent spot assay. A 10-day ELlspot for detecting low-frequency T cells was used to determine reactivity to the tumor antigen peptides (Table 1) as described (Knutson K L et al. J Clin Onc 2006;24: 4254-61). […] PMA/Ionomycin and the CEF pool were used as positive non-tumor related controls as previously described (Knutson, 2006).
Using predictive algorithms discussed above, candidate HLA-DR1-binding epitopes were identified. […] An interferon-gamma ELIspot assay was used to assess immunity to the indiscriminate binding peptides in 48 patients with either breast or ovarian cancer and 18 healthy controls.
Using an ELlspot assay with a limit of detection of approximately […], patient-derived PBMC were screened for reactivity against all of the HLA-DR binding peptides.

The test system of assay [2] is 15 different HLA-DR molecules. Put plainly: HLA-DR binding assays, panel of 15 different HLA-DR molecules (breadth of binding). Conditions: number of the 15 HLA-DR molecules bound (binders: 1000 nM or better).
Assay [3] addresses T1, purified HLA DRB1*0401 (Homo sapiens, UniProt P01903+P01911, A100K/A169T/F76Y/I96L/K127E/L162R/M171V/N62H/P40V/Q125Y/R42H/S133A/S149N/S66Y/V115G/V209L/W38E).
T1 construct: purified from EBV transformed homozygous cell lines or single MHC allele transfected 721.221, C1R, or fibroblast lines; made in house
Kind of assay: HLA-DR radioligand binding inhibition assay, DRB1*0401. Conditions: IC50 nM purified HLA DRB1 *0401, purified HLA DRB1*0401. The procedure, abridged:
(§1)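 The probe, 1-10 nM radiolabeled peptide, was incubated with 1 μM to 1 nM HLA-DR for 2 days in the presence of protease inhibitors.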

The target of assay [4] is T2, purified HLA DRB1*1201 (Homo sapiens, UniProt P01903+P01911, A100R/A169T/D57E/D86V/F55L/H45Y/K41T/L162R/M171V/P40S/Q125H/Q178H/Q39Y/Q99D/R42G/S66L/T262R/V114A/V67L/W38E/Y59H/Y61H/Y89S).
T2 construct: purified from EBV transformed homozygous cell lines or single MHC allele transfected 721.221, C1R, or fibroblast lines; made in house
Kind of assay: HLA-DR radioligand binding inhibition assay, DRB1*1201. As to the method:
(§2) Instead, wells of an opaque white 96-well Optiplate (Packard) are coated with 3 μg (100 μl@ 30 μg/ml) of HLA-specific antibody (Ab) that “capture” complexes of radiolabeled MHC and unlabeled peptide transferred from the molecular binding assay plate in 100 μl of 0.05% NP40/PBS. After a 3-hour incubation period, the supernatant is decanted and scintillation fluid (Microscint 20) added. Captured complexes are then measured on a microplate scintillation and luminescence counter (TopCount NXTTM; Packard).
(§3) HLA-DR purification. Fifteen distinct HLA-DR molecules were used in quantitative assays to measure the binding of peptides to solubilized HLA-DR molecules. […] Briefly, columns of inactivated Sepharose CL4B and Protein A Sepharose were used as pre-columns. HLA-DR molecules were captured by passage of lysates over LB3.1 monoclonal antibody (anti-HLA-DRA) columns. Antibody columns were washed with 10 mM Tris-HCL, pH8.0 with 1% (v/v) NP-40, followed by PBS containing 0.4% (w/v) n-octylglucoside. […] The pH was reduced to 8.0 and the eluates were concentrated by centrifugation in Centriprep 30 concentrators at 2000 rpm (Amicon, Beverly, Mass.).
(§4) Briefly, 1-10 nM of radiolabeled peptide was co-incubated for 2 days at either room temperature or 37° C. with 1 μM to 1 nM purified HLA-DR molecules in the presence of a cocktail of protease inhibitors. Assays were performed at various pH conditions, ranging from pH 4 to pH 7. […] After incubation, the percentage of HLA-DR-bound radioactivity is determined by capturing HLA-DR/peptide complexes on Optiplates (Packard Instruments, Meriden, Conn.) coated with the LB3.1 antibody and determining bound counts per minute using the TopCount microscintillation counter (Packard Instruments). […] Competitor peptides are tested in 2-4 complete, independent experiments, at concentrations ranging from […].

Assay [5] has as its target T3, purified HLA DRB1*0301 (Homo sapiens, UniProt P01903+P01911, A100K/A102G/A103R/A169T/F55Y/I96L/K41T/L162R/M171V/P40S/Q125H/Q178H/Q39Y/R42S/S66N/T106N/T262R/W38E/Y61H).
T3 construct: purified from EBV transformed homozygous cell lines or single MHC allele transfected 721.221, C1R, or fibroblast lines; made in house
Kind of assay: HLA-DR radioligand binding inhibition assay, DRB1*0301. Conditions: IC50 nM purified HLA DRB1 *0301, purified HLA DRB1*0301. As for the experimental part: as §2
HLA-DR purification. Fifteen distinct HLA-DR molecules were used in quantitative assays to measure the binding of peptides to solubilized HLA-DR molecules. […] Briefly, columns of inactivated Sepharose CL4B and Protein A Sepharose were used as pre-columns. HLA-DR molecules were captured by passage of lysates over LB3.1 monoclonal antibody (anti-HLA-DRA) columns. Antibody columns were washed with 10 mM Tris-HCL, pH8.0 with 1% (v/v) NP-40, followed by PBS containing 0.4% (w/v) n-octylglucoside.
Briefly, 1-10 nM of radiolabeled peptide was co-incubated for 2 days at either room temperature or 37° C. with 1 μM to 1 nM purified HLA-DR molecules in the presence of a cocktail of protease inhibitors. Assays were performed at various pH conditions, ranging from pH 4 to pH 7. […] After incubation, the percentage of HLA-DR-bound radioactivity is determined by capturing HLA-DR/peptide complexes on Optiplates (Packard Instruments, Meriden, Conn.) coated with the LB3.1 antibody and determining bound counts per minute using the TopCount microscintillation counter (Packard Instruments).

For assay [6], the target named is T4, purified HLA DRB1*0802 (Homo sapiens, UniProt P01903+P01911, A100R/A103L/A169T/F76Y/H45Y/I96F/K41T/L162R/M171V/P40S/Q125H/Q178H/Q39Y/Q99D/R218S/R42G/S66Y/V115G/W38E).
T4 construct: purified from EBV transformed homozygous cell lines or single MHC allele transfected 721.221, C1R, or fibroblast lines; made in house
Kind of assay: HLA-DR radioligand binding inhibition assay, DRB1*0802. The conditions noted are these: IC50 nM purified HLA DRB1 *0802, purified HLA DRB1*0802. As for the experimental part:
as §2, §3, §4

The target of assay [7] is T5, purified HLA DRB1*0101 (Homo sapiens, UniProt P01903+P01911, A100R/D57E/F55L/F60I/F76Y/I96L/L162R/M171V/P40L/Q125E/R42F/V115G/Y59C).
T5 construct: purified from EBV transformed homozygous cell lines or single MHC allele transfected 721.221, C1R, or fibroblast lines; made in house
Put plainly: HLA-DR radioligand binding inhibition assay, DRB1*0101. The conditions noted are these: IC50 nM purified HLA DRB1 *0101, purified HLA DRB1*0101. The procedure, abridged:
as §1

Assay [8] has as its target T6, purified HLA DRB5*0101 (Homo sapiens, UniProt P01903+Q30154).
T6 construct: purified from EBV transformed homozygous cell lines or single MHC allele transfected 721.221, C1R, or fibroblast lines; made in house
Kind of assay: HLA-DR radioligand binding inhibition assay, DRB5*0101. Conditions: IC50 nM purified HLA DRB5 *0101, purified HLA DRB5*0101. The procedure, abridged: as §1

The target of assay [9] is T7, purified HLA DRB1*1501 (Homo sapiens, UniProt P01903+P01911).
T7 construct: purified from EBV transformed homozygous cell lines or single MHC allele transfected 721.221, C1R, or fibroblast lines; made in house
Kind of assay: HLA-DR radioligand binding inhibition assay, DRB1*1501. The procedure, abridged:
as §1

The target in assay [10] is T8, purified HLA DRB3*0101 (Homo sapiens, UniProt P01903+P79483).
T8 construct: purified from EBV transformed homozygous cell lines or single MHC allele transfected 721.221, C1R, or fibroblast lines; made in house
Kind of assay: HLA-DR radioligand binding inhibition assay, DRB3*0101. Conditions: IC50 nM purified HLA DRB3 *0101, purified HLA DRB3*0101. As to the method:
as §2, §3, §4

Consider `CC[C@H](C)[C@H](N)C(=O)N[C@@H](CCCCN)C(=O)N[C@@H](Cc1c[nH]c2ccccc12)C(=O)N[C@@H](CCSC)C(=O)N[C@@H](C)C(=O)N[C@@H](CC(C)C)C(=O)N[C@@H](CCC(=O)O)C(=O)N[C@@H](CO)C(=O)N[C@H](C(=O)N[C@@H](CC(C)C)C(=O)N[C@@H](CCCNC(=N)N)C(=O)N[C@@H](CCCNC(=N)N)C(=O)N[C@@H](CCCNC(=N)N)C(=O)N[C@@H](Cc1ccccc1)C(=O)N[C@H](C(=O)O)[C@@H](C)O)[C@@H](C)CC` [Peptide 9019.0003], for which the “Percent of patients with responses” value in assay [1] is 4%. Moreover, the “patient response rate on exclusion of one healthy individual with a robust response” value in assay [1] (recalculated cutoff, FIG. 1) is given as 15%. In assay [2], the “Total XRN” value is 10.

In the case of `CC[C@H](C)[C@H](NC(=O)[C@H](CS)NC(=O)[C@H](Cc1c[nH]c2ccccc12)NC(=O)[C@@H](N)CCCNC(=N)N)C(=O)N1CCC[C@H]1C(=O)N[C@@H](Cc1c[nH]c2ccccc12)C(=O)N[C@@H](CCC(N)=O)C(=O)N[C@@H](CCCNC(=N)N)C(=O)N[C@@H](CC(C)C)C(=O)N[C@@H](CC(C)C)C(=O)N[C@@H](CC(C)C)C(=O)N[C@H](C(=O)N[C@@H](C)C(=O)N[C@@H](CO)C(=O)N[C@@H](CC(C)C)C(=O)O)[C@@H](C)O` [Peptide 9019.0104], the IC50 – broadly, the concentration at which inhibition is half-maximal – came out at 426 nM in assay [3]; 1560 nM in assay [4]; 7860 nM in assay [5]; 263 nM in assay [6]; 1470 nM in assay [7]; 4010 nM in [8]. For the same compound, the figures for the IC50 in [9] and in assay [10] were 61 nM and greater than 20000 nM, respectively.

With `CC[C@H](C)[C@H](NC(=O)[C@@H](NC(=O)[C@H](CC(C)C)NC(=O)[C@H](CCCCN)NC(=O)[C@H](C)NC(=O)[C@@H](NC(=O)[C@@H](NC(=O)[C@@H]1CCCN1C(=O)[C@@H]1CCCN1C(=O)[C@H](CC(N)=O)NC(=O)[C@H](Cc1c[nH]c2ccccc12)NC(=O)[C@H](Cc1ccccc1)NC(=O)[C@@H](NC(=O)[C@H](CC(C)C)NC(=O)[C@@H](N)CC(C)C)[C@@H](C)O)[C@@H](C)O)[C@@H](C)O)[C@@H](C)O)C(=O)O` [Peptide 9019.0105], the “Percent of patients with responses” value in [1] turned out to be 17%. The “Total XRN” value in assay [2] is recorded as 10.
